Laboratory results: patent US20180201592A1, “2-AMINO-1,3,4-THIADIAZINE AND 2-AMINO-1,3,4-OXADIAZINE BASED ANTIFUNGAL AGENTS” (F2G Limited, priority 2015, published 2018)

Tests used:
Settings in all cases: banded MIC grade
Aspergillus fumigatus = assay: Minimum inhibitory concentration, YAG medium; format: cell-based
Protocol: (§1) Between 1 and 5 mgs of compound were accurately weighed out into a sterile Eppendorf tube. The compound was dissolved in DMSO to give a solution containing 5 mg/mL. Tubes were stored at −20° C. until required.
(§2) On the day of testing thawed solutions were vortex mixed to ensure homogeneity. 30 μL of solution was removed and added to 570 μL of sterile water in a separate sterile Eppendorf. The thoroughly mixed solution was used to prepare a series of doubling dilutions in water, in a deep well plate. Thirteen replicate plates were prepared using a Minitrak by aspirating 20 μL from each well into eleven clear polystyrene 96 well plates.
(§3) Spores of Aspergillus spp. (Aspergillus fumigatus [two strains], Aspergillus terreus [two strains], Aspergillus niger and Aspergillus flavus) were harvested from cultures grown on Sabarauds agar for 5 days, and resuspended in PBS/Tween 80 to approx 1×10^7 cfu/mL. Each organism suspension was diluted in YAG medium (1% glucose, 1% ammonium chloride and 0.5% yeast extract) to 0.5-2×10^4cfu/mL. 80 μL of an organism suspension was added to each well of the plate containing drug dilutions.
(§4) This typically produced MIC plates with a drug range 50-0.05 mg/L and organism inocula of 1-2×10^4 cfu/mL for Aspergillus spp. All plates were incubated for 24 hrs at 35° C. Growth was assessed by monitoring the optical density at 485 nm for each well. The MIC of a compound is the lowest drug concentration that inhibits growth of an organism by >70% compared with a drug free control. MICs are recorded as mg/L. In cases where the MIC of an organism is […] the MIC is repeated using a concentration range of 0.5-0.0005 mg/L.

A. fumigatus 210 = assay: Minimum inhibitory concentration, YAG medium; format: cell-based, Aspergillus fumigatus
Protocol: as §1, §2, §3, §4

A. terreus 49 = assay: Minimum inhibitory concentration, YAG medium; format: cell-based, Aspergillus terreus
Protocol: (§5) The compound was dissolved in DMSO to give a solution containing 5 mg/mL. Tubes were stored at −20° C. until required. On the day of testing thawed solutions were vortex mixed to ensure homogeneity. 30 μL of solution was removed and added to 570 μL of sterile water in a separate sterile Eppendorf. The thoroughly mixed solution was used to prepare a series of doubling dilutions in water, in a deep well plate. Thirteen replicate plates were prepared using a Minitrak by aspirating 20 μL from each well into eleven clear polystyrene 96 well plates. Spores of Aspergillus spp. […] All plates were incubated for 24 hrs at 35° C. Growth was assessed by monitoring the optical density at 485 nm for each well. […] MICs are recorded as mg/L.

Aspergillus flavus = assay: Minimum inhibitory concentration, YAG medium; format: cell-based
Protocol: as §5

Aspergillus niger = assay: Minimum inhibitory concentration, YAG medium; format: cell-based
Protocol: as §5

Aspergillus terreus = assay: Minimum inhibitory concentration, YAG medium; format: cell-based
Protocol: as §5

C. albicans = assay: Minimum inhibitory concentration, RPMI medium; format: cell-based
Protocol: as §5, with “Assays were also performed in RPMI medium (Roswell Park Memorial Media 1640). To perform MIC tests in this medium, dilutions” for “Spores”, “compounds are prepared in microtitre plates as described above.” for “Aspergillus spp.”, “24-48” for “24”, “The following organisms were tested: […]” for “MICs are recorded as mg/L.”

C. parapsilosis = assay: Minimum inhibitory concentration, RPMI medium; format: cell-based
Protocol: as §5, with “Assays were also performed in RPMI medium (Roswell Park Memorial Media 1640). To perform MIC tests in this medium, dilutions” for “Spores”, “compounds are prepared in microtitre plates as described above.” for “Aspergillus spp.”, “24-48” for “24”, “The following organisms were tested: […]” for “MICs are recorded as mg/L.”

C. tropicalis = assay: Minimum inhibitory concentration, RPMI medium; format: cell-based
Protocol: as §5, with “Assays were also performed in RPMI medium (Roswell Park Memorial Media 1640). To perform MIC tests in this medium, dilutions” for “Spores”, “compounds are prepared in microtitre plates as described above.” for “Aspergillus spp.”, “24-48” for “24”, “The following organisms were tested: […]” for “MICs are recorded as mg/L.”

Row | Structure (SMILES) | MIC grade, A. FUMIGATUS, YAG media (Aspergillus fumigatus) | MIC grade, A. FUMIGATUS 210, YAG media (A. fumigatus 210) | MIC grade, A. TERREUS 49, YAG media (A. terreus 49) | MIC grade, A. FLAVUS, YAG media (Aspergillus flavus) | MIC grade, A. NIGER, YAG media (Aspergillus niger) | MIC grade, A. TERREUS, YAG media (Aspergillus terreus) | MIC grade, C. ALBICANS, RPMI media (C. albicans) | MIC grade, C. PARAPSILOSIS, RPMI media (C. parapsilosis) | MIC grade, C. TROPICALIS, RPMI media (C. tropicalis)
1 | Cc1ccc(OCCC2=NN=C(N)SC2)cc1 | 3 (3: 0.2-1 mg/L) | 4 (4: <0.2 mg/L) | 3 (3: 0.2-1 mg/L) | 3 (3: 0.2-1 mg/L) | 3 (3: 0.2-1 mg/L) | 3 (3: 0.2-1 mg/L) | 1 (1: ≥20 mg/L) | 4 (4: <1 mg/L) | 2 (2: 5-20 mg/L)
2 | NC1=NN=C(CCCCC(=O)Nc2ccccc2)CS1 | 3 (3: 0.2-1 mg/L) | 3 (3: 0.2-1 mg/L) | 2 (2: 1-5 mg/L) | 3 (3: 0.2-1 mg/L) | 2 (2: 1-5 mg/L) | 2 (2: 1-5 mg/L) | 1 (1: ≥20 mg/L) | 2 (2: 5-20 mg/L) | 1 (1: ≥20 mg/L)
3 | NC1=NN=C(CCCOc2ccccc2)CS1 | 4 (4: <0.2 mg/L) | 4 (4: <0.2 mg/L) | 3 (3: 0.2-1 mg/L) | 4 (4: <0.2 mg/L) | 4 (4: <0.2 mg/L) | 4 (4: <0.2 mg/L) | 2 (2: 5-20 mg/L) | 4 (4: <1 mg/L) | 3 (3: 1-5 mg/L)
4 | NC1=NN=C(CCCCCCOc2ccccc2)CS1 | 4 (4: <0.2 mg/L) | 4 (4: <0.2 mg/L) | 4 (4: <0.2 mg/L) | 4 (4: <0.2 mg/L) | 4 (4: <0.2 mg/L) | 4 (4: <0.2 mg/L) | 3 (3: 1-5 mg/L) | 4 (4: <1 mg/L) | 4 (4: <1 mg/L)
5 | NC1=NN=C(CCCCCCc2ccccc2)CS1 | 4 (4: <0.2 mg/L) | 4 (4: <0.2 mg/L) | 3 (3: 0.2-1 mg/L) | 4 (4: <0.2 mg/L) | 4 (4: <0.2 mg/L) | 4 (4: <0.2 mg/L) | 2 (2: 5-20 mg/L) | 4 (4: <1 mg/L) | 3 (3: 1-5 mg/L)
6 | NC1=NN=C(COc2ccccc2)CS1 | 4 (4: <0.2 mg/L) | 4 (4: <0.2 mg/L) | 3 (3: 0.2-1 mg/L) | 4 (4: <0.2 mg/L) | 3 (3: 0.2-1 mg/L) | 3 (3: 0.2-1 mg/L) | 2 (2: 5-20 mg/L) | 4 (4: <1 mg/L) | 2 (2: 5-20 mg/L)
